Test results published in patent publication US4446137A, “Cephalosporin derivative and pharmaceutical composition containing the derivative” (Kureha Kagaku Kogyo Kabushiki Kaisha, priority 1981, dated 1984).

Columns and labels:
Escherichia coli = assay: Effect on the intestinal bacterial colonies: E. coli count in mouse feces; assay type: in vivo
Experimental: (§1) Each of the cephalosporin derivatives of the invention prepared in Examples 1 to 4 was orally administered to mice (one group consisting of five female ICR mice of 6-week-old) for two consecutive days at a dose of 500 mg/kg/day.
(§2) Before and one day after the administration, feces of each mouse was collected and diluted with an anaerobic diluent (phosphoric buffer solution) of 100 times by volume and the diluted feces was ground. 0.1 ml of the diluted and ground feces was smeared on each culture medium shown in Table 1 and cultured aerobically or anaerobically (according to the anaerobic glove box method) under each condition shown in Table 1 and the number of each bacterium shown in Table 1 was counted.
DHL agar aerobic, 37° C.,

Pseudomonas aeruginosa = assay: Effect on the intestinal bacterial colonies: Ps. aeruginosa count in mouse feces; assay type: in vivo
Experimental: as §1, §2
NAC agar aerobic, 37° C.,

Streptococcus spp. = assay: Effect on the intestinal bacterial colonies: Streptococcus spp. count in mouse feces; assay type: in vivo
Experimental: as §1, §2
TATAC agar aerobic, 37° C.,

[1] = tested on: Lactobacillus acidophilus; assay: Effect on the intestinal bacterial colonies: L. acidophilus count in mouse feces; assay type: in vivo
Experimental: as §1, §2
Lactobacillus acidophilus
LBS agar anaerobic, 37° C.,

Lactobacillus bifidus = assay: Effect on the intestinal bacterial colonies: L. bifidus count in mouse feces; assay type: in vivo
Experimental: as §1, §2
BS agar anaerobic, 37° C.,

Bacteroides = assay: Effect on the intestinal bacterial colonies: Bacteroides count in mouse feces; assay type: in vivo
Experimental: as §1, §2
Bacteroides NBGT agar anaerobic, 37° C.,

[2] = tested on: Escherichia coli IFO 12734; assay: Antibacterial activity (MIC), agar plate, E. coli; assay type: cell-based; design: unit not given beside the values; conditions: Mueller-Hinton agar, 37° C., 18 to 24 hours; unit not given
Experimental: (§3) Antibacterial activity of each of the cephalosporin derivatives of the invention prepared in Examples 1 to 4 was examined against the following two bacteria according to the standard method of Japan Society of Chemitherapy: Escherichia coli IFO 12734 and Staphylococcus aureus IAM 1011.
(§4) Each bacterial strain was inoculated into the Mueller-Hinton's culture medium and cultured at 37° C. for 18 to 48 hours. The cultured medium was diluted so as to contain 1×10^6 cells of the bacteria per one ml, and the obtained medium was used as the bacterial specimen.
(§5) Agar plates were prepared by adding one part by weight of each solution of the cephalosporin derivative of the invention at a predetermined concentration to nine parts by weight of Mueller-Hinton's culture medium.
(§6) A loopful amount of the bacterial specimen prepared above was smeared to make a streak of about 2 cm on each agar plate prepared above and cultured at 37° C. for 18 to 24 hours.
(§7) The minimum concentration for completely inhibiting proliferation of the bacteria (referred to as MIC) was determined.

[3] = tested on: Staphylococcus aureus IAM 1011; assay: Antibacterial activity (MIC), agar plate, Staph. aureus; assay type: cell-based; design: unit not given beside the values; conditions: Mueller-Hinton agar, 37° C., 18 to 24 hours; unit not given
Experimental: as §3, §4, §5, §6, §7

[4] = tested on: Staphylococcus aureus IAM 1011; assay: Activation by rat liver homogenate (S-9 mix), proliferation-inhibiting circle, penicillin cup; assay type: cell-based; conditions: 37° C., 20 min, ratio of circle diameter to that of the starting compound; for Proliferation-inhibiting index, before adding S-9 mix (control): phosphoric buffer instead of S-9 mix; for Proliferation-inhibiting index, after adding S-9 mix: rat liver S-9 mix; as to all read-outs here: ranges in brackets are in %
Experimental: As an activating enzyme of metabolism, a rat liver homogenate (S-9, manufactured by Oriental Yeast Company, Japan) was used in the following composition per 1 ml (hereinafter referred to as S-9 mix). |S-9 0.5 ml |KCl 3.3 μmol |MgCl2.6H2 O 8 μmol |Glucose 6-phosphate 5 μmol |NADH 4 μmol |NADPH 4 μmol |0.2 M phosphoric buffer solution | 0.5 ml |(pH of 7.4) 0.1 ml of the solution of each of the cephalosporin derivatives of the invention prepared in Examples 1 to 4 at a concentration of 100 μg/ml was mixed with 0.9 ml of S-9 mix or 0.9 ml of 0.1 M phosphoric buffer solution (as a control) and the obtained mixture was incubated at 37° C. for 20 min with shaking. Staphylococcus aureus IAM 1011 was inoculated into a Mueller-Hinton's culture medium and cultured at 37° C. for 18 hours. The culture medium was adjusted to a cell concentration of 1×10^8 per 1 ml and mixed with 50 times by volume of Mueller-Hinton's agar culture medium to obtain an agar plate. A penicillin cup of 8 mm in diameter was placed on the agar plate prepared above, and into the cup 0.1 ml of the mixture containing the cephalosporin derivative prepared above was introduced and allowed to stand at 4° C. for 2 hours, and then cultured at 37° C. for 18 hours to measure the diameter of a circle in which the proliferation of bacteria was inhibited (proliferation-inhibiting circle). In Table 4, the proliferation-inhibiting index is shown in the ratio (%) of the diameter of the proliferation-inhibiting circle obtained by using each of the cephalosporin derivatives of the invention to that obtained by using each of the starting compound in preparing each of the cephalosporin derivatives of the invention.

[5] = female ICR mice, oral 500 mg/kg/day for two days, one day after administration, before administration 6.4

| SMILES | Logarithmic value of the number of bacterial cells per one g of feces: E. coli (Escherichia coli; [5]) | Logarithmic value of the number of bacterial cells per one g of feces: Ps. aeruginosa (Pseudomonas aeruginosa; in vivo, po, 500 mg/kg/day) | Logarithmic value of the number of bacterial cells per one g of feces: Strept. spp. (Streptococcus spp.; in vivo, po, 500 mg/kg/day) | Logarithmic value of the number of bacterial cells per one g of feces: L. acidophilus ([1]; in vivo, po, 500 mg/kg/day) | Logarithmic value of the number of bacterial cells per one g of feces: L. bifidus (Lactobacillus bifidus; in vivo, po, 500 mg/kg/day) | Logarithmic value of the number of bacterial cells per one g of feces: Bacteroides (Bacteroides; in vivo, po, 500 mg/kg/day) | MIC, E. coli [2] | MIC, Staph. aureus [3] | Proliferation-inhibiting index, before adding S-9 mix (control) [4] | Proliferation-inhibiting index, after adding S-9 mix [4] | change of the number of Escherichia coli compared to before administration (Escherichia coli; in vivo) | Logarithmic value of the number of bacterial cells per one g of feces: E. coli (Escherichia coli; in vivo, po, 500 mg/kg/day) | Logarithmic value of the number of bacterial cells per one g of feces: Ps. aeruginosa (Pseudomonas aeruginosa; female ICR mice, oral 500 mg/kg/day for two days, one day after administration, before administration <3.0) | Logarithmic value of the number of bacterial cells per one g of feces: Strept. spp. (Streptococcus spp.; female ICR mice, oral 500 mg/kg/day for two days, one day after administration, before administration 6.8) | Logarithmic value of the number of bacterial cells per one g of feces: L. acidophilus ([1]; female ICR mice, oral 500 mg/kg/day for two days, one day after administration, before administration 9.0) | change of Lactobacillus acidophilus ([1]; mouse feces, result in words) | Logarithmic value of the number of bacterial cells per one g of feces: L. bifidus (Lactobacillus bifidus; female ICR mice, oral 500 mg/kg/day for two days, one day after administration, before administration 8.4) | Logarithmic value of the number of bacterial cells per one g of feces: Bacteroides (Bacteroides; female ICR mice, oral 500 mg/kg/day for two days, one day after administration, before administration 8.3) |
| --- | --- | --- | --- | --- | --- | --- | --- | --- | --- | --- | --- | --- | --- | --- | --- | --- | --- | --- |
| COC(=O)[C@H](CCSC)NC(=O)C1=C(COC(C)=O)CSC2C(NC(=O)Cc3cccs3)C(=O)N12 (stereo partly drawn) [Example 2, N-(1-carbomethoxy-3-thiomethylpropyl)-7-(thienyl-2-acetamido)cephalosporanic acid amide] | 6.4 Logarithmic value of the numbe | < 3.0 Logarithmic value of the numbe | 6.6 Logarithmic value of the numbe | 8.9 Logarithmic value of the numbe | 8.3 Logarithmic value of the numbe | 8.8 Logarithmic value of the numbe | ≥ 100 | ≥ 12.5 | - (0) | ± (0-1) | – | – | – | – | – | – | – | – |
| CC(=O)OCC1=C(C(=O)O)N2C(=O)[C@@H](NC(=O)Cc3cccs3)[C@H]2SC1 [Cephalotin, reference compound] | – | – | – | – | – | – | – | – | – | – | increased | 9.9 Logarithmic value of the numbe | < 3.0 Logarithmic value of the numbe | 9.0 Logarithmic value of the numbe | 4.1 Logarithmic value of the numbe | decreased | 9.2 Logarithmic value of the numbe | 7.2 Logarithmic value of the numbe |
| COC(=O)C[C@H](NC(=O)C1=C(COC(C)=O)CSC2C(NC(=O)Cc3cccs3)C(=O)N12)C(=O)OC (stereo partly drawn) [Example 1, N-[1,2-bis(carbomethoxy)ethyl]-7-(thienyl-2-acetamido)cephalosporanic acid amide] | 6.3 Logarithmic value of the numbe | < 3.3 Logarithmic value of the numbe | 7.0 Logarithmic value of the numbe | 9.0 Logarithmic value of the numbe | 8.6 Logarithmic value of the numbe | 8.5 Logarithmic value of the numbe | ≥ 100 | ≥ 12.5 | - (0) | ± (0-1) | – | – | – | – | – | – | – | – |
| CCOC(=O)C(Cc1ccc(O)cc1)NC(=O)C1=C(COC(C)=O)CSC2C(NC(=O)Cc3cccs3)C(=O)N12 (stereo not drawn) [Example 3, N-[1-carboethoxy-2-(4-hydroxyphenyl)ethyl]-7-(thienyl-2-acetamido)cephalosporanic acid amide] | 6.5 Logarithmic value of the numbe | < 3.0 Logarithmic value of the numbe | 6.3 Logarithmic value of the numbe | 8.9 Logarithmic value of the numbe | 8.2 Logarithmic value of the numbe | 8.7 Logarithmic value of the numbe | ≥ 100 | ≥ 12.5 | - (0) | ± (0-1) | – | – | – | – | – | – | – | – |
| COC(=O)CCC(NC(=O)C1=C(COC(C)=O)CSC2C(NC(=O)Cc3cccs3)C(=O)N12)C(=O)OC (stereo not drawn) [Example 4, N-[1,3-bis(carbomethoxy)propyl]-7-(thienyl-2-acetamido)cephalosporanic acid amide] | 6.0 Logarithmic value of the numbe | < 3.9 Logarithmic value of the numbe | 7.0 Logarithmic value of the numbe | 9.4 Logarithmic value of the numbe | 8.9 Logarithmic value of the numbe | 8.3 Logarithmic value of the numbe | ≥ 100 | 12.5 | + (1-33) | ++ (33-66) | – | – | – | – | – | – | – | – |
